IC50 data for 17 compounds are collected here from patent US9120749B2, “Quinoline derivatives and MELK inhibitors containing the same” (ONCOTHERAPY SCIENCE, INC., priority 2010, dated 2015).

Counter-ions that a name gives are not always drawn.

In test [1] the target is MELK (Homo sapiens, UniProt Q14680). Kind of test: Kinase assay: MELK activity, phosphorylation of FITC-labeled histone H3 peptide measured by IMAP fluorescence polarization. It is filed as biochemical. Particulars: read-out: IC50 (μM) (kinase assay). A digest of the protocol:
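Compounds, serially diluted from 12.5 mM DMSO stocks to 1% final DMSO, were tested with FITC-labeled histone H3 peptide as substrate. The reaction was stopped with progressive binding solution. Fluorescence polarization was read after 0.5 hour at room temperature.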

Test [2] relates to DU4475 cells. The test can be described thus: Cell-based assay: anti-proliferative activity, Cell Counting Kit-8, 72 hours (DU4475). Particulars: Homo sapiens, DU-4475, 72 h.
Test [3] has as its system HT-1197 cells. Kind of test: Cell-based assay: anti-proliferative activity, Cell Counting Kit-8, 72 hours (HT-1197, negative control without MELK expression). Particulars: Homo sapiens, HT1197, 72 h, HT1197 cells (negative control, no MELK expression), 72 hours. A digest of the protocol: (§1)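 Anti-MELK western blot on crude lysates → MELK status per line. Cells plated 96-well, compound exposure, CCK-8 readout at 72 h; IC50 calculated.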
(Tetrazolium assays rely on reduction of a dye to a coloured formazan, in cell work by metabolically active cells.)

The test system of test [4] is T47D cells. Kind of test: Cell-based assay: anti-proliferative activity, Cell Counting Kit-8, 72 hours (T47D). The settings on record: Homo sapiens, T47D, 72 h. A digest of the protocol: as §1
Test [5] has as its system 22Rv1 cells. The test can be described thus: Cell-based assay: anti-proliferative activity, Cell Counting Kit-8, 72 hours (22Rv1). The settings on record: Homo sapiens, 22Rv1, 72 h.
Test [6] relates to A549 cells. The test can be described thus: Cell-based assay: anti-proliferative activity, Cell Counting Kit-8, 72 hours (A549). The settings on record: Homo sapiens, A549, 72 h, 72 hours. The essentials:
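A549 cells were seeded in 96-well plates and exposed to candidate inhibitors for 72 hours. Cell growth was then measured with Cell Counting Kit-8, and IC50 values were calculated from the resulting growth data.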

Sequence of MELK (Q14680 whole entry, looked up): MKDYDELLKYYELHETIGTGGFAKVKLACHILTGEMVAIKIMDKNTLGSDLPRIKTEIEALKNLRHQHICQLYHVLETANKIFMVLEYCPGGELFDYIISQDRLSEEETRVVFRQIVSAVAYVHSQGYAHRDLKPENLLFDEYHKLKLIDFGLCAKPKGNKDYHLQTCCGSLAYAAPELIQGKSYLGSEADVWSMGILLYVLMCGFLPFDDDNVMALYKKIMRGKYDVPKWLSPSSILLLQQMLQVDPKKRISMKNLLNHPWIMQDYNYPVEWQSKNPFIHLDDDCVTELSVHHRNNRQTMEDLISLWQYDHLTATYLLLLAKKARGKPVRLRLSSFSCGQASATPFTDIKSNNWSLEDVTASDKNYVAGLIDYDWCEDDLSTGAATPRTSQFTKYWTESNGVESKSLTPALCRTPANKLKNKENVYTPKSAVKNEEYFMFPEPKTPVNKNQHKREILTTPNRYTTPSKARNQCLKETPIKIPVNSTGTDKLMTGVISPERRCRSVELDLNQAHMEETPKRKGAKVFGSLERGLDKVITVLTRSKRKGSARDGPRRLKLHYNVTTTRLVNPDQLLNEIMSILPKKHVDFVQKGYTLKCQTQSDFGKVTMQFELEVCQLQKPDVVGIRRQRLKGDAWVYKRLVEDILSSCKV

Regarding `COc1cc(-c2ccc3ncc(C(C)=O)c(Nc4ccc(N5CCC(N)C5)nc4)c3c2)cc(Cl)c1O` (stereo not drawn) [Example 774, 1-(4-(6-(3-aminopyrrolidin-1-yl)pyridin-3-ylamino)-6-(3-chloro-4-hydroxy-5-methoxyphenyl)quinolin-3-yl)ethanone], the IC50 (usually the concentration that inhibits the measured activity by half) in test [1] is 0.0019 µM; in test [2], 0.056 µM; in test [3], 0.71 µM; in test [4], 0.034 µM; in test [5], 0.082 µM; in test [6], 0.045 µM.

Regarding `CCC(=O)c1cnc2ccc(-c3cc(Cl)c(O)c(OC)c3)cc2c1Nc1ccc(N2CCC(N)C2)nc1` (stereo not drawn) [Example 775, 1-(4-(6-(3-aminopyrrolidin-1-yl)pyridin-3-ylamino)-6-(3-chloro-4-hydroxy-5-methoxyphenyl)quinolin-3-yl)propan-1-one], the IC50 in test [1] stood at 0.0034 µM; in test [2] it was 0.065 µM; in test [3] it was 0.75 µM; in test [4] it was 0.049 µM; in test [5], 0.12 µM; in test [6] it was 0.049 µM.

As to `CN1CCN(c2ccc(Nc3c(C(=O)C4CC4)cnc4ccc(-c5cc(F)c(O)c(F)c5)cc34)cn2)CC1` [Example 778, cyclopropyl(6-(3,5-difluoro-4-hydroxyphenyl)-4-(6-(4-methylpiperazin-1-yl)pyridin-3-ylamino)quinolin-3-yl)methanone], the IC50 in test [1] came out at 0.021 µM; in test [2] it was 0.22 µM; in test [3], 2.6 µM; in test [4] it was 0.1 µM; in test [5], 0.48 µM; in test [6], 0.17 µM.

For the compound `CC(=O)c1cnc2ccc(-c3cc(Cl)c(O)c(Cl)c3)cc2c1N[C@H]1CC[C@H](CN2CCC(N)C2)CC1` (stereo partly drawn) [Example 779, 1-(4-(1R,4R)-4-((3-aminopyrrolidin-1-yl)methyl)cyclohexylamino)-6-(3,5-dichloro-4-hydroxyphenyl)quinolin-3-yl)ethanone hydrochloride], the IC50 in test [1] was 0.0017 µM; in test [2], 0.13 µM; in test [3] it was 10 µM; in test [4], 0.14 µM; in test [5], 0.23 µM; in test [6], 1 µM.

For the compound `COc1cc(-c2ccc3ncc(C(C)=O)c(N[C@H]4CC[C@H](CN5CCC(N)C5)CC4)c3c2)cc(Cl)c1O` (stereo partly drawn) [Example 780, 1-(4-(1R,4R)-4-((3-aminopyrrolidin-1-yl)methyl)cyclohexylamino)-6-(3-chloro-4-hydroxy-5-methoxyphenyl)quinolin-3-yl)ethanone hydrochloride], the IC50 in test [1] came to 0.002 µM; in test [2], 1.5 µM; in test [3] it was 3.2 µM; in test [4], 0.41 µM; in test [5], 0.67 µM; in test [6] it was 0.62 µM.

As to `CC(=O)c1cnc2ccc(-c3cc(F)c(O)c(Cl)c3)cc2c1N[C@H]1CC[C@H](CN2CCN(C)CC2)CC1` [Example 781, 1-(6-(3-chloro-5-fluoro-4-hydroxyphenyl)-4-(1R,4R)-4-((4-methylpiperazin-1-yl)methyl)cyclohexylamino)quinolin-3-yl)ethanone hydrochloride], the IC50 in test [1] was found to be 0.013 µM; in test [2], 0.19 µM; in test [3], 3.3 µM; in test [4], 0.1 µM; in test [5], 0.34 µM; in test [6], 0.2 µM.

Turning to `CC(=O)c1cnc2ccc(-c3cc(F)c(O)c(Cl)c3)cc2c1N[C@H]1CC[C@H](CN2CCNCC2)CC1` [Example 783, 1-(6-(3-chloro-5-fluoro-4-hydroxyphenyl)-4-((trans-4-(piperazin-1-ylmethyl)cyclohexyl)amino)quinolin-3-yl)ethanone dihydrochloride], the IC50 in test [1] was determined as 0.0088 µM; in test [2], 0.057 µM; in test [3], 4.2 µM; in test [4] it was 0.027 µM; in test [5] it was 0.087 µM; in test [6], 0.2 µM.

Turning to `CC(=O)c1cnc2ccc(-c3cc(Cl)c(O)c(Cl)c3)cc2c1N[C@H]1C[C@H](CN(C)C)C1` [Example 784, 1-(6-(3,5-dichloro-4-hydroxyphenyl)-4-((1r,3r)-3-((dimethylamino)methyl)cyclobutylamino)quinolin-3-yl)ethanone], the IC50 in test [1] came out at 0.0031 µM; in test [2] it was 0.2 µM; in test [3] it was 3.2 µM; in test [4], 0.6 µM; in test [5], 0.95 µM; in test [6] it was 0.74 µM.

Regarding `CNC1CCN(c2ccc(Nc3c(C(C)=O)cnc4ccc(-c5cc(F)c(O)c(Cl)c5)cc34)cn2)C1` (stereo not drawn) [Example 785, 1-(6-(3-chloro-5-fluoro-4-hydroxyphenyl)-4-((6-(3-(methylamino)pyrrolidin-1-yl)pyridin-3-yl)amino)quinolin-3-yl)ethanone trihydrochloride], the IC50 came out at 0.0056 µM in test [1]; 0.074 µM in test [2]; 1.3 µM in test [3]; 0.035 µM in test [4]; 0.076 µM in test [5]; 0.094 µM in test [6].

Regarding `CC(=O)c1cnc2ccc(-c3cc(F)c(O)c(Cl)c3)cc2c1N[C@H]1CC[C@H](CN2CCC(N)C2)CC1` (stereo partly drawn) [Example 786, 1-(4-(1R,4R)-4-((3-aminopyrrolidin-1-yl)methyl)cyclohexylamino)-6-(3-chloro-5-fluoro-4-hydroxyphenyl)quinolin-3-yl)ethanone hydrochloride], the IC50 in test [1] came out at 0.0031 µM; in test [2], 0.23 µM; in test [3], 10 µM; in test [4] it was 0.07 µM; in test [5] it was 0.17 µM; in test [6], 0.96 µM.

As for `COc1cc(-c2ccc3ncc(C(C)=O)c(N[C@H]4CC[C@H](CN5CCN(C)CC5)CC4)c3c2)cc(Cl)c1O` [Example 787, 1-(6-(3-chloro-4-hydroxy-5-methoxyphenyl)-4-(1R,4R)-4-((4-methylpiperazin-1-yl)methyl)cyclohexylamino)quinolin-3-yl)ethanone hydrochloride], the IC50 turned out to be 0.0058 µM in test [1]; 2.7 µM in test [2]; 5.2 µM in test [3]; 0.48 µM in test [4]; 0.72 µM in test [5]; 0.44 µM in test [6].

In the case of `CNC1CCN(c2ccc(Nc3c(C(C)=O)cnc4ccc(-c5cc(Cl)c(O)c(Cl)c5)cc34)cn2)C1` (stereo not drawn) [Example 788, 1-(6-(3,5-dichloro-4-hydroxyphenyl)-4-((6-(3-(methylamino)pyrrolidin-1-yl)pyridin-3-yl)amino)quinolin-3-yl)ethanone trihydrochloride], the IC50 in test [1] is 0.0017 µM; in test [2] it was 0.07 µM; in test [3], 8.6 µM; in test [4], 0.071 µM; in test [5], 0.1 µM; in test [6], 0.16 µM.

Regarding `CNC1CCN(c2ccc(Nc3c(C(=O)C4CC4)cnc4ccc(-c5cc(F)c(O)c(Cl)c5)cc34)cn2)C1` (stereo not drawn) [Example 789, (6-(3-chloro-5-fluoro-4-hydroxyphenyl)-4-((6-(3-(methylamino)pyrrolidin-1-yl)pyridin-3-yl)amino)quinolin-3-yl)(cyclopropyl)methanone trihydrochloride], the IC50 in test [1] was 0.0028 µM; in test [2], 0.053 µM; in test [3] it was 0.8 µM; in test [4], 0.039 µM; in test [5], 0.077 µM; in test [6], 0.076 µM.

As to `CCN(CC)C[C@H]1CC[C@H](Nc2c(C(C)=O)cnc3ccc(-c4cc(Cl)c(O)c(Cl)c4)cc23)CC1` [Example 790], the IC50 in test [1] was 0.0018 µM; in test [2], 0.098 µM; in test [3], 4.2 µM; in test [4], 0.1 µM; in test [5], 0.14 µM; in test [6], 0.14 µM.

In the case of `CCN(CC)C[C@H]1CC[C@H](Nc2c(C(C)=O)cnc3ccc(-c4cc(Cl)c(O)c(OC)c4)cc23)CC1` [Example 791, 1-(6-(3-chloro-4-hydroxy-5-methoxyphenyl)-4-(1R,4R)-4-((diethylamino)methyl)cyclohexylamino)quinolin-3-yl)ethanone hydrochloride], the concentration for half-maximal inhibition (IC50) in test [1] was 0.0031 µM; in test [2], 0.43 µM; in test [3], 9.3 µM; in test [4], 0.58 µM; in test [5], 0.49 µM; in test [6], 0.27 µM.

Regarding `COc1cc(-c2ccc3ncc(C(C)=O)c(N[C@H]4CC[C@H](CN5CCC[C@H]5CO)CC4)c3c2)cc(Cl)c1O` [Example 793, 1-(6-(3-chloro-4-hydroxy-5-methoxyphenyl)-4-((1S,4r)-4-(((S)-2-(hydroxymethyl)pyrrolidin-1-yl)methyl)cyclohexylamino)quinolin-3-yl)ethanone], the IC50 in test [1] was determined as 0.0018 µM; in test [2], 0.33 µM; in test [3], 7.1 µM; in test [4], 0.15 µM; in test [5], 0.34 µM; in test [6], 0.17 µM.

For `CCN(CC)C[C@H]1CC[C@H](Nc2c(C(C)=O)cnc3ccc(-c4cc(F)c(O)c(Cl)c4)cc23)CC1` [Example 794], the IC50 stood at 0.0056 µM in test [1]; 0.074 µM in test [2]; 0.75 µM in test [3]; 0.031 µM in test [4]; 0.094 µM in test [5]; 0.077 µM in test [6].
